# Values quoted from earlier work in US6790849B2, “Methods and compositions using optically pure (-) cetirizine in combination with leukotriene inhibitors or decongestants” (Sepracor Inc., priority 1998, dated 2004).
# Like-named read-outs stand apart in the source and are kept apart here.
# Tests used:
# [1] = system: three leukotrienes in conducting airway smooth muscle; conditions: in vitro, laboratory animals and humans
# LTD4 [2] = conditions: in vivo
# LTD4 [3] = conditions: in vivo; remark: listed apart in the source
# [4] = system: allergen- or exercise-induced bronchoconstriction; conditions: patients, doses as large as 20 mg
# [5] = system: leukotriene (LTH4, LTC4, LTD4, and LTE4) formation
# LTB4 formation = conditions: several species
# [6] = system: leukotriene-dependent smooth muscle contractions; conditions: in vitro, guinea pig and human airways
# [7] = for efficacy: 373 patients
# LTD4 [8] = conditions: guinea pigs
smiles,measurement,setting,value
"COc1cc(C(=O)NS(=O)(=O)c2ccccc2C)ccc1Cc1cn(C)c2ccc(NC(=O)OC3CCCC3)cc12 [zafirlukast, 4-(5-cyclopentyloxy-carbonylamino-1-methyl-indol-8-ylmethyl)-3-methoxy-N-o-tolylsulfonylbenzamide]",contractile activity of three leukotrienes in conducting airway smooth muscle,[1],antagonized
same,intradermal LTD4-induced increases in cutaneous vascular permeability,LTD4 [2],prevented
same,inhaled LTD4-induced influx of eosinophils into animal lungs,LTD4 [3],inhibited
same,adverse effects reported in some patients,,"headache, infection, nausea, diarrhea, pain, asthenia, abdominal pain, dizziness, myalgia, fever, vomiting, SGPT elevation, and dyspepsia"
O=C(O)COCCN1CCN(C(c2ccccc2)c2ccc(Cl)cc2)CC1 (racemic) [cetirizine],preventing allergen- or exercise-induced bronchoconstriction,[4],not uniformly effective
"CC(c1cc2ccccc2s1)N(O)C(N)=O (racemic) [zileuton, (±)-1-(1-Benso[b]thien-2-ylethyl)-1-hydroxyurea]","leukotriene (LTH4, LTC4, LTD4, and LTE4) formation in vitro",[5],inhibit
same,LTB4 formation ex vivo,LTB4 formation,inhibitor
same,leukotriene-dependent smooth muscle contractions,[6],inhibits
same,efficacy,[7]; 400 mg,failed to do so
same,efficacy,[7]; 600 mg four times daily,required to provide efficacy
same,adverse effects reported in some patients,[7]; some patients,"headache, pain, asthenia, dyspepsia, nausea, and myalgia"
CC(C)(C)c1ccc(C(O)CCCN2CCC(C(O)(c3ccccc3)c3ccccc3)CC2)cc1 (stereo not drawn) [terfenadine],increase in airway resistance caused by LTD4,LTD4 [8],suppressed
